Source: US20090239840A1, “AMINO SUBSTITUTED DIARYL[a,d]CYCLOHEPTENE ANALOGS AS [sequence] AGONISTS AND METHODS OF TREATMENT OF NEUROPSYCHIATRIC DISORDERS” (ACADIA PHARMACEUTICALS, INC., priority 2003, published 2009)

Tests used:
muscarinic M1 receptor = molecular target: T1, muscarinic M1 receptor (Homo sapiens, UniProt P11229); experiment: R-SAT functional screen, M1; format: cell-based; conditions: R-SAT; for Emax: read-out: M1 eff (efficacy)
T1 construct: expressed in transfected cells
T1 sequence (P11229 1-460): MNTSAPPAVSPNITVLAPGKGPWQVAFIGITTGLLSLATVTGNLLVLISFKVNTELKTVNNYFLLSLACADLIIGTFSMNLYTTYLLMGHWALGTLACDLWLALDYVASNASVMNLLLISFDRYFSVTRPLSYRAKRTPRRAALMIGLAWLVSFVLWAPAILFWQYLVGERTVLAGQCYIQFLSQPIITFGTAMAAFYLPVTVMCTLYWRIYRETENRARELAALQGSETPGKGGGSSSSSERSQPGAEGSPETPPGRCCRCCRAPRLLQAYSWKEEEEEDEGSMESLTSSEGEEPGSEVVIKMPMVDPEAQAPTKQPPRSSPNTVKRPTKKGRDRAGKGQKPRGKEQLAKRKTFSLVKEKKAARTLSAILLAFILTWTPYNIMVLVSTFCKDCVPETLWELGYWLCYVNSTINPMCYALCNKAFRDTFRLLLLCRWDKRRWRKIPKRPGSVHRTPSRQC
Procedure: (§1) Several compounds disclosed herein were evaluated for activity at muscarinic receptors using Receptor Selection and Amplification Technology (R-SAT) as described in U.S. Pat. No. 5,707,798, the disclosure of which is incorporated herein by reference in its entirety. The efficacy (eff) and potency (expressed as pEC50) of these compounds are presented in Table 1 at M1, M2, and M3 receptors.

muscarinic M2 receptor = molecular target: T2, muscarinic M2 receptor (Homo sapiens, UniProt P08172); experiment: R-SAT functional screen, M2; format: cell-based; conditions: R-SAT; for Emax: read-out: M2 eff (efficacy); for EC50: read-out: M2 pEC50 (converted)
T2 construct: expressed in transfected cells
T2 sequence (P08172 1-466): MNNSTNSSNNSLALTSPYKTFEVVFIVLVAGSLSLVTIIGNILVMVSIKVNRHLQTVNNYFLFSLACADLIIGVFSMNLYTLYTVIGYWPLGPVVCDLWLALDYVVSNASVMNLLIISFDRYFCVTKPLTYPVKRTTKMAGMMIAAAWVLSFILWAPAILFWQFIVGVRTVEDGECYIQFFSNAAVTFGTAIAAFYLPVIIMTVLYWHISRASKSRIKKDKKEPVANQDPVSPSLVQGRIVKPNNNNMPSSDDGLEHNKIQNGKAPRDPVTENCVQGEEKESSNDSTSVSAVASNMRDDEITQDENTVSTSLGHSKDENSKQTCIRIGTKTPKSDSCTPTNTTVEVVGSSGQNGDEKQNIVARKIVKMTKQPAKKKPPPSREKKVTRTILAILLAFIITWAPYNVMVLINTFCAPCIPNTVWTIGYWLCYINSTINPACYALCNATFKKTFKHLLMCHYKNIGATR
Procedure: as §1

Emax (muscarinic M1 receptor) [%] | EC50 (muscarinic M1 receptor; read-out: M1 pEC50 (converted)) [nM] | Emax (muscarinic M2 receptor) [%] | EC50 (muscarinic M2 receptor) [nM] | SMILES
41 | 501 | 16 | – | Clc1ccc2c(c1)N=C(N1CCNCC1)c1ccccc1N2Cc1ccccc1
8 | – | 24 | – | C[C@@H]1CN(C2=Nc3cc(Cl)ccc3Nc3ccccc32)[C@@H](C)CN1 (relative stereo) [8-Chloro-11-(trans-2,5-dimethyl-piperazin-1-yl)-5H-dibenzo[b,e][1,4]diazepine]
– | – | 84 | 2000 | Clc1ccc2c(c1)N=C(N1CCNCC1)c1c(Cl)cccc1N2 [1,8-Dichloro-11-(piperazin-1-yl)-5H-dibenzo[b,e][1,4]diazepine]
6 | – | 95 | 2510 | NC1CCN(C2=Nc3cc(Cl)ccc3Nc3ccccc32)CC1 [1-(8-Chloro-5H-dibenzo[b,e][1,4]diazepin-11-yl)-piperidine-4-yl-amine]
8 | – | 36 | 3160 | NC1CCN(C2=Nc3cc(Cl)ccc3Nc3ccccc32)C1 (stereo not shown) [1-(8-Chloro-5H-dibenzo[b,e][1,4]diazepin-11-yl)-pyrrolidin-3-yl-amine]
-2 | – | -14 | – | Clc1ccc2c(c1)Nc1ccc(Cl)cc1C(N1CCNCC1)=N2 [2,7-Dichloro-11-(piperazin-1-yl)-5H-dibenzo[b,e][1,4]diazepine]
– | – | 6 | – | Brc1ccc2c(c1)N=C(N1CCNCC1)c1cc(Br)ccc1O2 [2,8-Dibromo-11-(piperazin-1-yl)-dibenzo[b,f][1,4]oxazepine]
1 | – | 24 | – | Clc1ccc2c(c1)N=C(N1CCNCC1)c1cc(Cl)ccc1N2 [2,8-Dichloro-11-(piperazin-1-yl)-5H-dibenzo[b,e][1,4]diazepine]
-8 | – | 9 | – | O=S(=O)(Oc1ccc2c(c1)C(N1CCNCC1)=Nc1ccccc1N2)C(F)(F)F [2-(Trifluoromethanesulfonyloxy)-11-(piperazin-1-yl)-5H-dibenzo[b,e][1,4]diazepine]
-11 | – | 4 | – | O=S(=O)(Oc1ccc2c(c1)C(N1CCNCC1)=Nc1ccccc1O2)C(F)(F)F [2-(Trifluoromethanesulfonyloxy)-11-(piperazin-1-yl)-5H-dibenzo[b,e][1,4]oxazepine]
– | – | 15 | – | Clc1ccc2c(c1)Oc1ccc(Br)cc1C(N1CCNCC1)=N2 [2-Bromo-7-chloro-11-(piperazin-1-yl)-dibenzo[b,f][1,4]oxazepine]
6 | – | 19 | – | Clc1ccc2c(c1)N=C(N1CCNCC1)c1cc(Br)ccc1N2 [2-Bromo-8-chloro-11-(piperazin-1-yl)-5H-dibenzo[b,e][1,4]diazepine]
– | – | 13 | – | Clc1ccc2c(c1)N=C(N1CCNCC1)c1cc(Br)ccc1O2 [2-Bromo-8-chloro-11-(piperazin-1-yl)-dibenzo[b,f][1,4]oxazepine]
– | – | 21 | – | Fc1ccc2c(c1)N=C(N1CCNCC1)c1cc(Br)ccc1O2 [2-Bromo-8-fluoro-11-(piperazin-1-yl)-dibenzo[b,f][1,4]oxazepine]
– | – | 17 | – | Cc1ccc2c(c1)N=C(N1CCNCC1)c1cc(Br)ccc1O2 [2-Bromo-8-methyl-11-(piperazin-1-yl)-dibenzo[b,f][1,4]oxazepine]
– | – | 11 | – | FC(F)(F)c1ccc2c(c1)N=C(N1CCNCC1)c1cc(Br)ccc1O2 [2-Bromo-11-(piperazin-1-yl)-8-trifluoromethyl-dibenzo[b,f][1,4]oxazepine]
– | – | 9 | – | Brc1ccc2c(c1)C(N1CCNCC1)=Nc1ccccc1O2 [2-Bromo-11-(piperazin-1-yl)-dibenzo[bf][1,4]oxazepine]
2 | – | 3 | – | Clc1ccc2c(c1)C=C(N1CCNCC1)c1ccccc1N2 [2-Chloro-10-piperazin-1-yl-5H-dibenzo[b,f]azepin]
-5 | – | 8 | – | Clc1ccc2c(c1)C(N1CCNCC1)=Nc1ccccc1N2 [2-Chloro-11-(piperazin-1-yl)-5H-dibenzo[b,e][1,4]diazepine]
10 | – | 19 | – | FC(F)(F)c1ccc2c(c1)N=C(N1CCNCC1)c1cc(Cl)ccc1N2 [2-Chloro-11-(piperazin-1-yl)-8-trifluoromethyl-5H-dibenzo[b,e][1,4]diazepine]
3 | – | 10 | – | Clc1ccc2c(c1)N=C(N1CCNCC1)c1cc(I)ccc1N2 [2-Iodo-8-chloro-11-(piperazin-1-yl)-5H-dibenzo[b,e][1,4]diazepine]

Emax (muscarinic M1 receptor) [%] | EC50 (muscarinic M1 receptor; read-out: M1 pEC50 (converted)) [nM] | Emax (muscarinic M2 receptor) [%] | EC50 (muscarinic M2 receptor) [nM] | SMILES
1 | – | 9 | – | Cc1ccc2c(c1)C(N1CCNCC1)=Nc1ccccc1N2 [2-Methyl-11-(piperazin-1-yl)-5H-dibenzo[b,e][1,4]diazepine]
11 | – | – | – | FC(F)(F)c1ccc2c(c1)N=C(N1CCNCC1)c1ccc(Cl)cc1N2 [3-Chloro-11-(piperazin-1-yl)-8-trifluoromethyl-5H-dibenzo[b,e][1,4]diazepine]
– | – | 45 | 3160 | COc1ccc2c(c1)Oc1ccc(C)cc1N=C2N1CCNCC1 [3-Methoxy-8-methyl-11-(piperazin-1-yl)-dibenzo[b,f][1,4]oxazepine]
– | – | 17 | – | COc1ccc2c(c1)Oc1ccc(C(F)(F)F)cc1N=C2N1CCNCC1 [3-Methoxy-11-(piperazin-1-yl)-8-trifluoromethyl-dibenzo[b,f][1,4]oxazepine]
– | – | 45 | 2510 | COc1ccc2c(c1)Oc1ccccc1N=C2N1CCNCC1 [3-Methoxy-11-(piperazin-1-yl)-dibenzo[b,f][1,4]oxazepine]
– | – | 46 | 794 | Cc1ccc2c(c1)N=C(N1CCNCC1)c1cccc(C)c1O2 [4,8-Dimethyl-11-(piperazin-1-yl)-dibenzo[b,f][1,4]oxazepine]
– | – | 22 | – | Cc1cccc2c1Oc1ccccc1N=C2N1CCNCC1 [4-Methyl-11-(piperazin-1-yl)-dibenzo[b,f][1,4]oxazepine]
– | – | 71 | – | Clc1cccc2c1Nc1ccccc1C(N1CCNCC1)=N2 [6-Chloro-11-(piperazin-1-yl)-5H-dibenzo[b,e][1,4]diazepine]
– | – | 44 | 1000 | COc1ccc2c(c1)Oc1cc(Cl)ccc1N=C2N1CCNCC1 [7-Chloro-3-methoxy-11-(piperazin-1-yl)-dibenzo[b,f][1,4]oxazepine]
– | – | 28 | 398 | Cc1cccc2c1Oc1cc(Cl)ccc1N=C2N1CCNCC1 [7-Chloro-4-methyl-11-(piperazin-1-yl)-dibenzo[b,f][1,4]oxazepine]
– | – | 53 | 1260 | Clc1ccc2c(c1)Oc1ccccc1C(N1CCNCC1)=N2 [7-Chloro-11-(piperazin-1-yl)-dibenzo[b,f][1,4]oxazepine]
– | – | 21 | – | COc1ccc2c(c1)Oc1ccc(Br)cc1N=C2N1CCNCC1 [8-Bromo-3-methoxy-11-(piperazin-1-yl)-dibenzo[b,f][1,4]oxazepine]
– | – | 48 | 1580 | Cc1cccc2c1Oc1ccc(Br)cc1N=C2N1CCNCC1 [8-Bromo-4-methyl-11-(piperazin-1-yl)-dibenzo[b,f][1,4]oxazepine]
– | – | 19 | – | COc1ccc2c(c1)Oc1ccc(Cl)cc1N=C2N1CCNCC1 [8-Chloro-3-methoxy-11-(piperazin-1-yl)-dibenzo[b,f][1,4]oxazepine]
– | – | 49 | 2510 | COc1ccc2c(c1)Oc1ccc(F)cc1N=C2N1CCNCC1 [8-Fluoro-3-methoxy-11-(piperazin-1-yl)-dibenzo[b,f][1,4]oxazepine]
– | – | 76 | 3160 | Cc1ccc2c(c1)N=C(N1CCNCC1)c1ccccc1O2 [8-Methyl-11-(piperazin-1-yl)-dibenzo[b,f][1,4]oxazepine]
– | – | 104 | 2000 | c1ccc(-c2ccc3c(c2)N=C(N2CCNCC2)c2ccccc2N3)cc1 [8-Phenyl-11-(piperazin-1-yl)-5H-dibenzo[b,e][1,4]diazepine]
– | – | 33 | 1260 | c1ccc(-c2ccc3c(c2)N=C(N2CCNCC2)c2ccccc2O3)cc1 [8-Phenyl-11-(piperazin-1-yl)-dibenzo[b,f][1,4]oxazepine]
– | – | 58 | 1260 | FC(F)(F)c1ccc2c(c1)N=C(N1CCNCC1)c1ccccc1O2 [11-(piperazin-1-yl)-8-trifluoromethyl-dibenzo[b,f][1,4]oxazepine]
– | – | 58 | 2000 | c1ccc2c(c1)N=C(N1CCNCC1)c1ccccc1O2 [11-(piperazin-1-yl)-dibenzo[b,f][1,4]oxazepine]
– | – | 17 | – | Clc1ccc2c(c1)N=C(NC1CNC1)c1ccccc1N2 [Acetidin-3-yl-(8-chloro-5H-dibenzo[b,e][1,4]diazepine-11-yl)amine]
